Measurements: patent publication US9351491B2, “Inhibition and dispersion of biofilms in plants with imidazole-triazole derivatives” (priority 2008, dated 2016)
Where a name gives a salt, the structure may show the parent alone.

Experiments:
[1] = tested on: Xanthomonas strains Xcv 135; assay: Crystal violet biofilm inhibition (attachment) assay on PVC microtiter wells; type: cell-based; settings: 28° C., 6 hours, static
Description: A Standard Crystal Violet reporter assay is employed to assess the effect of compounds from the 2-amino on the formation of biofilms. Among others, the following strains are tested:
Bacteria are allowed to form biofilms in a multi-well plate in the absence or presence of one or more compounds. Planktonic (or free growing) bacteria are then removed, wells washed vigorously, and crystal violet added. Crystal violet stains the remaining bacteria which, following ethanol solubilization, is quantitated by spectrophotometry (A540). Time-dependent and concentration-dependent analysis of each compound are performed.
Biofilm formation on PVC microtiter wells was accomplished using Xanthomonas strains Xcv 135 (known to infect peppers and tomatoes) and Xcv 5 (known to infect tomatoes but not peppers) as models. The Starting Optical Density (OD at 600 nm) for biofilm attachment assay was 0.55, the temperature for this assay was 28° C., the duration of incubation was 6 hours under, and the assay was static.
Biofilm inhibition results are as follows for screens with Xcv 135. The Xcv 5 strain is tested in the same manner.

[2] = tested on: bacterial spot (caused by the bacterium Xanthomonas euvesicatoria) of pepper, copper-resistant strains; assay: Field test in pepper plants inoculated with Xanthomonas euvesicatoria (bacterial spot); type: in vivo
Description: To test the effects of the triazole derivatives for plant biofilm inhibition activity, the compound of Formula (II)(a)(5)(D) was used as an exemplary compound (the “biofilm inhibitor/disperser” or “BFI” in the text hereinafter of Example 4).
The compound was evaluated under field conditions to determine whether it controls or enhances control of bacterial spot (caused by the bacterium Xanthomonas euvesicatoria) of pepper when applied alone or in tank-mixtures with a copper (Kocide 3000), an antibiotic (GWN-9350, gentamicin), or a putative plant defense activator (Prophyt). Tests were performed April-July 2008 at the North Carolina Agricultural Research Service Sandhills Research Station, Montgomery County.
EXPERIMENTAL DESIGN and TREATMENT APPLICATIONS: Each treatment consisted of two 7-plant rows running east-west replicated in a four-block completely randomized design. Each 7-plant row was 10.5 ft×2 ft. This area was used to calculate the quantity of spray material extrapolated for a per acre basis. Plants of bell pepper cultivar ‘X3R-Camelot’ were transplanted to the field on Apr. 24, 2008. On May 6, two plants in the south row of each plot of each treatment were inoculated with a suspension of copper-resistant strains of the bacterial pathogen. These plants were destined to serve as the inoculum source for each plot. Each of the spray test materials was mixed in 1.5 liters of water and applied using a backpack sprayer by making a single pass on each side of the plant row. Treatments were applied weekly starting immediately after the plants had been inoculated May 6 followed by 7 additional weekly sprays for a total of 8 applications through June 24.
DATA: Ratings of foliar disease were started May 22, when symptoms were observed on the inoculated plants and continued weekly through June 25. Disease was most severe on the inoculated plants and then spread to the non-inoculated plants. Data from these two groups (inoculated plants and the non-inoculated) were evaluated separately. The results are expressed as disease progress over time using the calculated Area Under the Disease Progress Curve (AUDPC). Two fruit harvests were done; July 1 and 8. Because there had been plant loss in some plots, the number of plants per plot was counted and yields (number of fruit and weight) were calculated and are reported on a per plant basis per treatment.

[3] = tested on: C. albicans; assay: Growth curve / colony count analysis, C. albicans; type: cell-based, Candida albicans; settings: 100 μM (data not shown)
[4] = tested on: Candida albicans biofilms; assay: Inhibition of C. albicans biofilm formation, crystal violet reporter assay; type: cell-based; settings: 24 h, read-out: inhibition of C. albicans biofilm formation
Description: It was screened at 100 μM for its ability to inhibit to the formation of C. albicans biofilms using a crystal violet reporter assay. Briefly, biofilms were allowed to form for 24 hours in a 96-well microtiter plate in the absence or presence of 100 μM of the compound. The wells were subsequently washed thoroughly with water to remove free-floating and loosely adherent fungus, and then treated with crystal violet. Crystal violet stains the remaining surface attached fungus (i.e. the biofilm), which following solublization, can be quantified by spectrophotometry (A540).
Each member of the pilot library was assayed at 100 μM for its ability to inhibit the formation of C. albicans biofilms using the crystal violet reporter assay.
Procedure to Determine the Inhibitory Effect of Test Compounds on C. albicans, C. neoformans and a Mixed S. epidermidis/C. albicans Biofilm Formation:
Inhibition assays were performed by taking an overnight culture of yeast or yeast/bacteria strain and subculturing it at an OD600 of 0.05 into YPD (Yeast extract, peptone and dextrose (BD 242820)) media for the yeast alone or tryptic soy broth for the S. epidermidis/C. albicans. […] Biofilm inhibition was quantitated by measuring the OD540 of each well in which a negative control lane wherein no biofilm was formed served as a background and was subtracted out.

[5] = two fruit harvests, per plant basis

| SMILES | % Inhibition at 20 μM (vs. Xcv 135) [1] [%] | Mean AUDPC for entire plot ([2]; foliar disease, 0-9 rating scale, AUDPC, entire plot, 8 weekly sprays) [a] | Mean AUDPC for inoculated plants ([2]; foliar disease, 0-9 rating scale, Area Under the Disease Progress Curve, inoculated bell pepper plants, 8 weekly sprays, rate/acre as in treatment line) [b] | Mean fruit yield (lb)/plant [2, 5] [b lb] | Mean number pepper fruit/plant [2, 5] [b] | growth curves: anti-biofilm activity fungicidal or not [3] | inhibition at 100 µM [4] [%] |
| --- | --- | --- | --- | --- | --- | --- | --- |
| C/C(=C\c1ccccc1)Cn1cc(CCCCCCc2c[nH]c(N)n2)nn1 [Formula (II)(a)(6)(D), 4-{6-[1-(2-Methyl-3-phenyl-allyl)-1H-[1,2,3]triazol-4-yl]-hexyl}-1H-imidazol-2-ylamine hydrochloride] | 85 | – | – | – | – | – | – |
| Nc1nc(CCc2cn(CCc3c[nH]c4ccccc34)nn2)c[nH]1 [Formula (II)(i)(a)(2)(J)] | 0 | – | – | – | – | – | – |
| C/C(=C\c1ccccc1)Cn1cc(CCCCCc2c[nH]c(N)n2)nn1 [Formula (II)(a)(5)(D), 4-{5-[1-(2-Methyl-3-phenyl-allyl)-1H-[1,2,3]triazol-4-yl]-pentyl}-1H-imidazol-2-ylamine hydrochloride] | 86 | 42 | 113 | 1.46 | 4.8 | non-fungicidal | 12 |
